The record followed here is US12473304B2, “Heterocyclic PAD4 inhibitors” (BRISTOL-MYERS SQUIBB COMPANY, priority 2020, dated 2025).

For this test, the target named is human PAD4 (hPAD4) (Homo sapiens (Human), UniProt Q9UM07). Put plainly: RFMS Human PAD4 Functional Assay 1. Conditions: RFMS assay 1; 5 nM hPAD4, 250 μM BAEE substrate, 50 μM calcium, 37° C. It counts as biochemical. In a few lines: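 Citrullination product read by RapidFire triple-quad MRM against a modified-citrulline internal standard, after TCA stop and 30 min phenyl glyoxal step at 37 °C. Reaction: 250 μM BAEE, 5 nM human PAD4, 90 min at 37 °C, pH 7.5 HEPES buffer with 50 μM calcium and 5 μM TPEN, following 30 min compound–enzyme preincubation (max 50 μM).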
Sequence of human PAD4 (hPAD4) (Q9UM07 whole entry): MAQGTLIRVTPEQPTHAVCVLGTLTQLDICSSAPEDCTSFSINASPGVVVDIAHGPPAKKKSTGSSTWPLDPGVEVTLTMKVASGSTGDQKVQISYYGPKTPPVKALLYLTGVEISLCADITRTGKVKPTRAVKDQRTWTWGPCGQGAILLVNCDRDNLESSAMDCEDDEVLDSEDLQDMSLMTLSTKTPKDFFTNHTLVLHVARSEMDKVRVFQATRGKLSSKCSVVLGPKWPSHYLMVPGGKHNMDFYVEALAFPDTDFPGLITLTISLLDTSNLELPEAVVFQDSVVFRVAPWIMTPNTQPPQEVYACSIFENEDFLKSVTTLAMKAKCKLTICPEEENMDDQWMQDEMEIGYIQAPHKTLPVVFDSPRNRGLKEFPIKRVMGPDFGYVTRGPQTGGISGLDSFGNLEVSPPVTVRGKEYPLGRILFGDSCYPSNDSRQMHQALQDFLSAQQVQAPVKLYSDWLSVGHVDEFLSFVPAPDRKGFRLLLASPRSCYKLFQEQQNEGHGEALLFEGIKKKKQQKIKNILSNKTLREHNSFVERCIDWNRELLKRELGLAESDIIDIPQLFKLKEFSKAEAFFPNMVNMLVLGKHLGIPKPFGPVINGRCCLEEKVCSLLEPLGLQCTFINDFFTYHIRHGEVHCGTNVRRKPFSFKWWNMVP

The IC50 is the concentration that gives 50% inhibition. Regarding `COc1cc(C(=O)N2C[C@H](N)C[C@@H](F)C2)cn2nc(-c3cc4ccc(-c5ccccc5CO)cc4n3CC3CC3)c(C)c12` [Example 209, [2-(2-{6-[(3R,5R)-3-Amino-5-fluoropiperidine-1-carbonyl]-4-methoxy-3-methylpyrazolo[1,5-a]pyridin-2-yl}-1-(cyclopropylmethyl)-1H-indol-6-yl)phenyl]methanol], the IC50 stood at 1080 nM.

Consider `Cc1c(-c2cc3ccc(-c4ccc(C(N)=O)c(Cl)c4)cc3n2CC2CC2)oc2cc(C(=O)N3C[C@H](N)C[C@@H](F)C3)ccc12` [Example 199, 4-(2-(6-((3R,5R)-3-Amino-5-fluoropiperidine-1-carbonyl)-3-methylbenzofuran-2-yl)-1-(cyclopropylmethyl)-1H-indol-6-yl)-2-chlorobenzamide], for which the half-maximal inhibitory concentration (IC50) amounted to 3360 nM.

For `COc1cc(-c2ccc3cc(-c4sc5cc(C(=O)N6CC7CCC6[C@@H]7N)cc(OC)c5c4C)n(CC4CC4)c3c2)ccn1` (stereo partly drawn) [Example 129, ((7R)-7-Amino-2-azabicyclo[2.2.1]heptan-2-yl)(2-(1-(cyclopropylmethyl)-6-(2-methoxypyridin-4-yl)-1H-indol-2-yl)-4-methoxy-3-methylbenzo[b]thiophen-6-yl)methanone], the IC50 worked out at 376 nM.

On to `CC(=O)N1CC(c2cccc3cc(-c4nn5cc(C(=O)N6CC7CCC6[C@@H]7N)ccc5c4C)n(CC4CC4)c23)C1` (stereo partly drawn) [Example 549, 1-(3-(2-(6-((7R)-7-Amino-2-azabicyclo[2.2.1]heptane-2-carbonyl)-3-methylpyrazolo[1,5-a]pyridin-2-yl)-1-(cyclopropylmethyl)-1H-indol-7-yl)azetidin-1-yl)ethan-1-one], for which the concentration for half-maximal inhibition (IC50) was found to be 10 nM.

Take `Cc1c(-c2cc3ccc(-c4ccc5c(c4)C(=O)NC5)nc3n2CC2CC2)nn2cc(C(=O)N3CC4CCC3[C@@H]4N)cc(F)c12` (stereo partly drawn) [Example 46, 6-(2-(6-((7R)-7-Amino-2-azabicyclo[2.2.1]heptane-2-carbonyl)-4-fluoro-3-methylpyrazolo[1,5-a]pyridin-2-yl)-1-(cyclopropylmethyl)-1H-pyrrolo[2,3-b]pyridin-6-yl)isoindolin-1-one]: the IC50 amounted to 41 nM.

In the case of `COc1cc(C(=O)N2C[C@H](N)C[C@@H](F)C2)cn2nc(-c3cc4ccc(-c5ccc6c(c5)CNC6=O)cc4n3CC3CC3)c(C)c12` [Example 30, 5-(2-(6-((3R,5R)-3-Amino-5-fluoropiperidine-1-carbonyl)-4-methoxy-3-methylpyrazolo[1,5-a]pyridin-2-yl)-1-(cyclopropylmethyl)-1H-indol-6-yl)isoindolin-1-one], the concentration for half-maximal inhibition (IC50) amounted to 84 nM.

In the case of `COc1cc(C(=O)N2CC3CCC2[C@@H]3N)cn2nc(-c3cc4ccc(-c5ccc(OC(F)F)c(F)c5)nc4n3CC3CC3)c(C)c12` (stereo partly drawn) [Example 12, ((7R)-7-Amino-2-azabicyclo[2.2.1]heptan-2-yl)(2-(1-(cyclopropylmethyl)-6-(4-(difluoromethoxy)-3-fluorophenyl)-1H-pyrrolo[2,3-b]pyridin-2-yl)-4-methoxy-3-methylpyrazolo[1,5-a]pyridin-6-yl)methanone], the IC50 was determined as 2320 nM.

In the case of `Cc1c(-c2cc3ccc(-c4ccc5c(c4)C(=O)NC5)nc3n2CC2CC2)nn2cc(C(=O)N3CCC[C@@H](N)C3)ccc12` [Example 315], the concentration for half-maximal inhibition (IC50) was found to be 340 nM.

For `COc1cc(C(=O)N2C[C@H](N)C[C@@H](F)C2)cn2nc(-c3cc4cccc(C5CN(C(=O)C(C)(C)OC)C5)c4n3CC3CC3)c(C)c12` [Example 518, 1-(3-(2-(6-((3R,5R)-3-Amino-5-fluoropiperidine-1-carbonyl)-4-methoxy-3-methylpyrazolo[1,5-a]pyridin-2-yl)-1-(cyclopropylmethyl)-1H-indol-7-yl)azetidin-1-yl)-2-methoxy-2-methylpropan-1-one], the 50% inhibitory concentration (IC50) turned out to be 260 nM.

In the case of `COc1cc(C(=O)N2C[C@H](N)C[C@@H](F)C2)cn2nc(-c3cc4ccc(-c5cccc(CNC(C)=O)c5)cc4n3CC3CC3)c(C)c12` [Example 215, N-{[3-(2-{6-[(3R,5R)-3-Amino-5-fluoropiperidine-1-carbonyl]-4-methoxy-3-methylpyrazolo[1,5-a]pyridin-2-yl}-1-(cyclopropylmethyl)-1H-indol-6-yl)phenyl]methyl}acetamide], the IC50 stood at 610 nM.

In the case of `Cc1cc(-c2ccc3cc(-c4nn5cc(C(=O)N6CC7CCC6[C@@H]7N)cc(F)c5c4C)n(CC4CC4)c3n2)ccc1C(N)=O` (stereo partly drawn) [Example 262, 4-(2-{6-[(7R)-7-Amino-2-azabicyclo[2.2.1]heptane-2-carbonyl]-4-fluoro-3-methylpyrazolo[1,5-a]pyridin-2-yl}-1-(cyclopropylmethyl)-1H-pyrrolo[2,3-b]pyridin-6-yl)-2-methylbenzamide], the IC50 is 120 nM.

Consider `Cc1c(-c2cc3ccc(-c4ccc5[nH]ccc5c4)cc3n2CC2CC2)nn2cc(C(=O)N3CCC[C@@H](N)C3)ccc12` [Example 345, (3R)-1-{2-[1′-(Cyclopropylmethyl)-1H,1′H-[5,6′-biindole]-2′-yl]-3-methylpyrazolo[1,5-a]pyridine-6-carbonyl}piperidin-3-amine], for which the half-maximal inhibitory concentration (IC50) is 790 nM.

Take `Cc1c(-c2cc3ccc(-c4ccc(O)c(F)c4)nc3n2CC2CC2)nn2cc(C(=O)N3CC4CCC3[C@@H]4N)cc(F)c12` (stereo partly drawn) [Example 48, ((7R)-7-Amino-2-azabicyclo[2.2.1]heptan-2-yl)(2-(1-(cyclopropylmethyl)-6-(3-fluoro-4-hydroxyphenyl)-1H-pyrrolo[2,3-b]pyridin-2-yl)-4-fluoro-3-methylpyrazolo[1,5-a]pyridin-6-yl)methanone]: the IC50 was 326 nM.

As for `COc1cc(C(=O)N2CCC[C@@H](N)C2)cn2nc(-c3cc4cccc(C5CN(C(=O)C6CC(O)(C(F)(F)F)C6)C5)c4n3CC3CC3)c(C)c12` (mixture of isomers) [Example 515, (R)-(3-Aminopiperidin-1-yl)(2-(1-(cyclopropylmethyl)-7-(1-(3-hydroxy-3-(trifluoromethyl)cyclobutane-1-carbonyl)azetidin-3-yl)-1H-indol-2-yl)-4-methoxy-3-methylpyrazolo[1,5-a]pyridin-6-yl)methanone], the IC50 was 60 nM.

As for `Cc1c(-c2cc3ccc(-c4ccccc4N4CCNC4=O)nc3n2CC2CC2)nn2cc(C(=O)N3CCC[C@@H](N)C3)cc(F)c12` [Example 281, 1-[2-(2-{6-[(3R)-3-Aminopiperidine-1-carbonyl]-4-fluoro-3-methylpyrazolo[1,5-a]pyridin-2-yl}-1-(cyclopropylmethyl)-1H-pyrrolo[2,3-b]pyridin-6-yl)phenyl]imidazolidin-2-one], the IC50 is 140 nM.

Regarding `Cc1c(-c2cc3ccc(-c4cccc(O)c4F)nc3n2CC2CC2)nn2cc(C(=O)N3CCC[C@@H](N)C3)cc(F)c12` [Example 283, 3-(2-{6-[(3R)-3-Aminopiperidine-1-carbonyl]-4-fluoro-3-methylpyrazolo[1,5-a]pyridin-2-yl}-1-(cyclopropylmethyl)-1H-pyrrolo[2,3-b]pyridin-6-yl)-2-fluorophenol], the half-inhibitory concentration (IC50) came to 330 nM.

Take `Cc1c(-c2cc3ccc(-c4ccc5c(c4)C(=O)NC5)nc3n2CC2CC2)nn2cc(C(=O)N3CC4CCC3[C@@H]4N)cnc12` (stereo partly drawn) [Example 110, 6-(2-(6-((7R)-7-Amino-2-azabicyclo[2.2.1]heptane-2-carbonyl)-3-methylpyrazolo[1,5-a]pyrimidin-2-yl)-1-(cyclopropylmethyl)-1H-pyrrolo[2,3-b]pyridin-6-yl)isoindolin-1-one]: the IC50 stood at 1040 nM.

With `COc1cc(C(=O)N2C[C@H](N)C[C@@H](F)C2)cc2sc(-c3cc4ccc(-c5ccc(C(N)=O)c(F)c5)nc4n3CC3CC3)c(C)c12` [Example 141, 4-(2-(6-((3R,5R)-3-Amino-5-fluoropiperidine-1-carbonyl)-4-methoxy-3-methylbenzo[b]thiophen-2-yl)-1-(cyclopropylmethyl)-1H-pyrrolo[2,3-b]pyridin-6-yl)-2-fluorobenzamide], the 50% inhibitory concentration (IC50) came out at 179 nM.

On to `CO[C@@H](C)C(=O)N1CCC(c2cc(F)cc3cc(-c4nn5cc(C(=O)N6C[C@H](N)C[C@@H](F)C6)ccc5c4C)n(CC4CC4)c23)CC1` [Example 500, (S)-1-(4-(2-(6-((3R,5R)-3-Amino-5-fluoropiperidine-1-carbonyl)-3-methylpyrazolo[1,5-a]pyridin-2-yl)-1-(cyclopropylmethyl)-5-fluoro-1H-indol-7-yl)piperidin-1-yl)-2-methoxypropan-1-one], for which the IC50 came out at 240 nM.

On to `Cc1c(-c2cc3ccc(-c4cccc(O)c4F)nc3n2CC2CC2)oc2cc(C(=O)N3CC4CCC3[C@@H]4N)ccc12` (stereo partly drawn) [Example 169, ((7R)-7-Amino-2-azabicyclo[2.2.1]heptan-2-yl)(2-(1-(cyclopropylmethyl)-6-(2-fluoro-3-hydroxyphenyl)-1H-pyrrolo[2,3-b]pyridin-2-yl)-3-methylbenzofuran-6-yl)methanone], for which the IC50 came out at 181 nM.

Regarding `Cc1c(-c2cc3cccc(C4CCN(C(=O)[C@H]5CC[C@H](O)CC5)CC4)c3n2CC2CC2)nn2cc(C(=O)N3CCC[C@@H](N)C3)ccc12` [Example 443, ((R)-3-aminopiperidin-1-yl)(2-(1-(cyclopropylmethyl)-7-(1-((1r,4r)-4-hydroxycyclohexane-1-carbonyl)piperidin-4-yl)-1H-indol-2-yl)-3-methylpyrazolo[1,5-a]pyridin-6-yl)methanone], the IC50 is 130 nM.

Consider `Cc1c(-c2cc3cc(F)cc(C4CCN(C(=O)C5CC(O)(C(F)(F)F)C5)CC4)c3n2CC2CC2)nn2cc(C(=O)N3C[C@H](N)C[C@@H](F)C3)ccc12` (mixture of isomers) [Example 505, ((3R,5R)-3-Amino-5-fluoropiperidin-1-yl)(2-(1-(cyclopropylmethyl)-5-fluoro-7-(1-(3-hydroxy-3-(trifluoromethyl)cyclobutane-1-carbonyl)piperidin-4-yl)-1H-indol-2-yl)-3-methylpyrazolo[1,5-a]pyridin-6-yl)methanone], for which the IC50 was 60 nM.
